2 molecules from BindingDB's records for doi:10.1016/j.bmcl.2006.01.095 (Technische Universität Graz, 2006) can be followed below.

The nature of assay [1]: Inhibition of jack beans alpha-mannosidase.
Assay [2] can be described thus: Inhibition of Streptomyces plicatus beta-D-hexosaminidase.

As a reminder, the Ki is the equilibrium dissociation constant of an inhibitor or competing ligand from its target. A lower Ki goes with a stronger hold on the target.

Regarding `CN(C)c1ccc(-c2cnc(-c3ccc(S(=O)(=O)NCCCCCCN4C[C@H](O)[C@@H](O)[C@H](O)[C@H]4CO)cc3)o2)cc1` [4-(5-(4-(dimethylamino)phenyl)oxazol-2-yl)-N-(6-((2R,3R,4R,5S)-3,4,5-trihydroxy-2-(hydroxymethyl)piperidin-1-yl)hexyl)benzenesulfonamide], in assay [1], the Ki came to 65 µM.
Molecule `CC(=O)N[C@H]1CN(CCCCCCNS(=O)(=O)c2cccc3c(N(C)C)cccc23)[C@H](CO)[C@@H](O)[C@@H]1O` [N-((3S,4R,5R,6R)-1-(6-(1-(dimethylamino)naphthalene-5-sulfonamido)hexyl)-4,5-dihydroxy-6-(hydroxymethyl)piperidin-3-yl)acetamide] had a Ki in assay [2] of 1.8 µM.
